Measured values reported in US11312690B2, “Compounds, compositions, methods for treating diseases, and methods for preparing compounds” (UNIVERSITY OF LOUISVILLE RESEARCH FOUNDATION, INC., priority 2015, dated 2022).

How the values were obtained:
Panc-1 [1] = assay: Soft agar colony formation; format: cell-based, human
Protocol: FIG. 1. Effects of some compounds of Formula (I) on RalGEF inhibitor on soft agar growth and normal growth in 2D of pancreatic carcinoma cell lines. In FIGS. 1A and 1B, Panc-1 (ATCC® CRL-1469™) and MiaPaCa-2 (ATCC® CRL-1420™) mutant Ras containing pancreatic tumor cell lines were plated in soft agar in the presence of 10 μM or 0.9 μM of compound I-1 and scored for the formation of colonies. In FIGS. 1C and 1D, compound I-1 was then tested for the ability to inhibit cell growth on the same cell lines under normal 2D growth conditions on plastic. “0” is the carrier. Cells were seeded at the same density and scored after two weeks in culture.
Human pancreatic tumor cell lines MiaPaca-2 and Panc-1 contain activated K-Ras and were used in the initial screen to identify compound I-1. Soft agar colony formation remains an established in vitro assay to predict tumorigenicity and was used to predict tumorigenicity for compound I-1.

MiaPaCa-2 = assay: Normal 2D growth on plastic; format: cell-based, human; conditions: normal 2D growth conditions on plastic, 1 week, FIG. 1D
Protocol: (§1) FIG. 1. Effects of some compounds of Formula (I) on RalGEF inhibitor on soft agar growth and normal growth in 2D of pancreatic carcinoma cell lines. In FIGS. 1A and 1B, Panc-1 (ATCC® CRL-1469™) and MiaPaCa-2 (ATCC® CRL-1420™) mutant Ras containing pancreatic tumor cell lines were plated in soft agar in the presence of 10 μM or 0.9 μM of compound I-1 and scored for the formation of colonies. In FIGS. 1C and 1D, compound I-1 was then tested for the ability to inhibit cell growth on the same cell lines under normal 2D growth conditions on plastic. “0” is the carrier. […]

Panc-1 [2] = assay: Normal 2D growth on plastic; format: cell-based, human; conditions: normal 2D growth conditions on plastic, 1 week, FIG. 1C
Protocol: as §1

[3] = molecular target: T1, interaction of K-Ras with RGL2 (Homo sapiens, UniProt O15211); assay: Ras/RalGEF binding, immunoprecipitation and immunoblot from co-transfected HEK-293 cells; conditions: 10 μM, HA K-Ras 12v and GFP-RGL2, IP/IB, FIG. 3B
T1 construct: expressed in transfected cells; host or cells: HEK-293
T1 sequence (O15211 1-777): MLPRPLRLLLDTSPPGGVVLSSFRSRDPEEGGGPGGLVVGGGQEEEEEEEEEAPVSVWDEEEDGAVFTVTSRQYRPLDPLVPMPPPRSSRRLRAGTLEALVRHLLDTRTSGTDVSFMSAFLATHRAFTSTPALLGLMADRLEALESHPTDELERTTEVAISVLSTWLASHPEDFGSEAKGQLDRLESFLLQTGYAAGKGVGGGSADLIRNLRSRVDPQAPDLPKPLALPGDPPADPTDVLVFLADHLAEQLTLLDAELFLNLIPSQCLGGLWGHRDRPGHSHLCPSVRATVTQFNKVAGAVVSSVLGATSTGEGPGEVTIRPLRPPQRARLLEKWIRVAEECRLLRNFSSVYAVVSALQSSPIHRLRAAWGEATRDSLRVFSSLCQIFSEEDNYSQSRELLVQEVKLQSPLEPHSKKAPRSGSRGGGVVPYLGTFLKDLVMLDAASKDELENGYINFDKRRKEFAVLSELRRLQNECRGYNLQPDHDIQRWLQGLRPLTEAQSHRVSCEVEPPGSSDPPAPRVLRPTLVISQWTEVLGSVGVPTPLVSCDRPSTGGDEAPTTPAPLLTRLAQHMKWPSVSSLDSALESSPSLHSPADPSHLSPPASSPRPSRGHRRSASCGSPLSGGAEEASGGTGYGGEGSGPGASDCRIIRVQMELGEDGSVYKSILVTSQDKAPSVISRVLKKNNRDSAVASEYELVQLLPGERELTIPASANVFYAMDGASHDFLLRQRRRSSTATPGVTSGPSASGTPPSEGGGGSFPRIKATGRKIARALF

[4] = Preliminary in vivo toxicity; parameters: species or system mice; conditions: 25 mg/kg, ip injection over 2 weeks, data not shown
RalA = assay: Activated RalA pull down in lung tissue of Mia-PaCa2 xenograft mice; format: in vivo, NRG mice; conditions: treated vs carrier treated xenograft mouse, FIG. 5
Protocol: Some compounds of Formula (I) suppress Ral GTP levels in vivo—FIG. 5 NRG mice were provided with s.c. xenografts of Mia-PaCa2 cells. Tissue from the lungs of a carrier treated xenograft mouse and a compound I-1 treated mouse were assayed for the levels of activated RalA using a pull down assay kit using the manufacter's protocol (Cat. #BK040 from Cytoskeleton, Inc., Denver Colo.).

Mia-PaCa-2 cells = assay: Mia-PaCa-2 sub-cutaneous xenograft, primary tumor growth and lung metastasis; format: in vivo, NRG mice; conditions: 10 mg/kg ip every other day for 2 weeks, scored one week later
Protocol: Some compounds of Formula (I) suppress pancreatic cancer cell metastasis—FIG. 6. NRG mice were sub-cutaneously inoculated with PBS (“no tumor cells”) or 5×10^6 Ras driven Mia-PaCa-2 cells. Mice were allowed to recover for 1 week and then injected (ip) with PBS/DMSO carrier or 10 mg/kg of compound I-1 every other day for 2 weeks. One week later, mice were scored for primary tumor growth and lung metastasis.

COc1cccc(CNc2nc(CN(C)Cc3cccc(OC)c3)nc3sc(C)c(C)c23)c1 [Compound I-1]
ability of the cells to grow in soft agar (Panc-1 [1]; 10 μM, FIG. 1A): almost completely blocked | tumorigenic phenotype in vitro (Panc-1 [1]; FIG. 1A): blocks the tumorigenic phenotype in vitro at low μM or sub μM levels | IC50 (Panc-1 [1]; Homo sapiens, PANC-1, soft agar, titration experiments, data not shown, read-out: IC50 (concentration that inhibits 50% of colony formation)): < 1 µM | cell growth in 2D (MiaPaCa-2): no reduction in growth | cell growth in 2D (Panc-1 [2]): no reduction in growth | inhibition of RGL2 (Ras/RGL2 interaction) [3]: also inhibited RGL2 | deleterious effect on mice (behavior, weight) [4]: no obvious deleterious effect | levels of active RalA in lung tissue (RalA): reduced levels of active RalA | effects on the primary tumor (Mia-PaCa-2 cells): not obvious | lung metastasis (Mia-PaCa-2 cells; FIG. 6): metastasis was inhibited
